How the values were obtained:
Cathepsin B = Cathepsin B (Homo sapiens, UniProt P07858); test: Cathepsin B incubation inhibition assay; assay type: biochemical; conditions: Table 4, cross reactivity of caspase inhibitors; listed as Cbz-Leu-Glu-Thr-AAsp-trans-CH═CH—COOEt
Procedure: Papain and Cathepsin B. The incubation method was used to measure the irreversible inhibition of papain and cathepsin B. […] Pseudo first-order inactivation rate constants were obtained from plots of ln vt/vo versus time.

Calpain I = molecular target: T1, Calpain I (Sus scrofa, UniProt P35750); test: Calpain I incubation inhibition assay; assay type: biochemical, porcine; conditions: Table 4, cross reactivity of caspase inhibitors; listed as Cbz-Leu-Glu-Thr-AAsp-trans-CH═CH—COOEt
T1 construct: by the incubation method with calpain I from porcine erythrocytes; from tissue; host or cells: porcine erythrocytes
T1 sequence (P35750 1-714): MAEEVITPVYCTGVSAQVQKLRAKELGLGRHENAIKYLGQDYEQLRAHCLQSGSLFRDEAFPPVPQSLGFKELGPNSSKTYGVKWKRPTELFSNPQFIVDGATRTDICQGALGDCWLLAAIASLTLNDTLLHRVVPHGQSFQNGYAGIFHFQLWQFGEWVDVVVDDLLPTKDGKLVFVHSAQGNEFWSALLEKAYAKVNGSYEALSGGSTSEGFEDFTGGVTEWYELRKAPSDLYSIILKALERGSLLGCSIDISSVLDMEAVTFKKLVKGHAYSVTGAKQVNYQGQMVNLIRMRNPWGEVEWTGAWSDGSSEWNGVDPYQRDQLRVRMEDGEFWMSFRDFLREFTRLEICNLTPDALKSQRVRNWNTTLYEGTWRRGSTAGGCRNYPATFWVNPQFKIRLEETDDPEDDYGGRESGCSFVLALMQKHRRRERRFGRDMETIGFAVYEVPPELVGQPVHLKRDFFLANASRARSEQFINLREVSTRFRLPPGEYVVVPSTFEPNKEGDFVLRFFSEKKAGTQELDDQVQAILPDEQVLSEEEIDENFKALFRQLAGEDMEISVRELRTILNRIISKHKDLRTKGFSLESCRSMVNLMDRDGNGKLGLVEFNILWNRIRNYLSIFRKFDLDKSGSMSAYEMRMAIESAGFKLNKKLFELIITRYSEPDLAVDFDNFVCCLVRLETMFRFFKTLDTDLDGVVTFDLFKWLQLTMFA
T1 sequence (P04574 1-266 partner): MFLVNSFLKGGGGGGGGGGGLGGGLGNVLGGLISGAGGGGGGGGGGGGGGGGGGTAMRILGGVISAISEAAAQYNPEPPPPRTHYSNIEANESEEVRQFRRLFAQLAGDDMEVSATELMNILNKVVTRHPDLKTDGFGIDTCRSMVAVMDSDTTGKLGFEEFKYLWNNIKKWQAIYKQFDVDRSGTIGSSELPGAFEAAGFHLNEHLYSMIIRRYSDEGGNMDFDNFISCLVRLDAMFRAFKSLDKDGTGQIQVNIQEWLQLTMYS
Procedure: Calpain I. Irreversible kinetic assays were performed by the incubation method with calpain I from porcine erythrocytes. […] At various time intervals 50 μL aliquots were withdrawn from the incubation mixture and added to 200 μL enzyme buffer containing Suc-Leu-Tyr-AMC (1.6 mM). […] Pseudo first-order rate constants (kobs) were obtained from plots of ln vt/vo versus time.

Caspase-3 = molecular target: T2, Caspase-3 (Homo sapiens, UniProt P42574); test: Caspase-3 progress curve inhibition assay; conditions: second-order rate constant; Ac-DEVD-AMC substrate; Pipes buffer pH 7.2
T2 sequence (P42574 29-175 limits assumed): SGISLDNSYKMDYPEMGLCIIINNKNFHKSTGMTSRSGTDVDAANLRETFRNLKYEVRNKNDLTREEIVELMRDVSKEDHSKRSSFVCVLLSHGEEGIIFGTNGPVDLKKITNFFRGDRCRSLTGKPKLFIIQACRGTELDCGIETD
T2 sequence (P42574 176-277 limits assumed): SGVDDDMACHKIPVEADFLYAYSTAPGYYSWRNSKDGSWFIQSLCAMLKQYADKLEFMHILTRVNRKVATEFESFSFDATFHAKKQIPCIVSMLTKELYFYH

Caspase-9 = molecular target: T3, Caspase-9 (Homo sapiens, UniProt P55211); test: Caspase-9 progress curve inhibition assay; conditions: second-order rate constant; Ac-LEHD-AFC substrate; Hepes buffer pH 7.0 with 0.7 M sodium citrate
T3 sequence (P55211 1-315 limits assumed): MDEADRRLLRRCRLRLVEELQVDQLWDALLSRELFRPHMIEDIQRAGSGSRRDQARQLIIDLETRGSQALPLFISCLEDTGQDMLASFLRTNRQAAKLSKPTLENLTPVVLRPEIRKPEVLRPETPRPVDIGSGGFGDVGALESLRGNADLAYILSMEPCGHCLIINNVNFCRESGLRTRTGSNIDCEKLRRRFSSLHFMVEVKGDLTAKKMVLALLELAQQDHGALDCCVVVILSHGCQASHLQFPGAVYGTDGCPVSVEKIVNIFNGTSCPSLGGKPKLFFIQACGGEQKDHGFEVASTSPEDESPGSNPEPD
T3 sequence (P55211 331-416 limits assumed): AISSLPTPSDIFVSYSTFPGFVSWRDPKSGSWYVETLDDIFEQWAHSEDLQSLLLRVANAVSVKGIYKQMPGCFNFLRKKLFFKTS

`CCOC(=O)/C=C/C(=O)N(CC(=O)O)NC(=O)[C@@H](NC(=O)[C@H](CCC(=O)O)NC(=O)[C@H](CC(C)C)NC(=O)OCc1ccccc1)[C@@H](C)O` (relative stereo) [Cbz-Leu-Glu-Thr-AAsp-CH═CH—COOEt, N^2—(N-Berzyloxycarbonylleucylglutamylthreonyl)-N^1-carboxymethyl-N^1-trans-(3-ethoxycarbonylpropenoyl)hydrazine] was tested, and the “k2 Cathepsin B” value (Cathepsin B) was under 10 M⁻¹ s⁻¹, the “k2 Calpain” value (Calpain I) was under 10 M⁻¹ s⁻¹ and the “k2 Caspase-3” value (Caspase-3) was 5,560 M^−1s^−1. For the same compound, the “k2 Caspase-9” value (Caspase-9) was 37 M⁻¹ s⁻¹.
